Data as given in patent US20050113450A1, “Antibacterial agents” (priority 2002, published 2005).
Converted amounts (≈) assume the structure as drawn.

Test system: SA 9218
Assay: MIC by standard agar dilution method
Type: cell-based
Settings: Mueller Hinton agar, 10^4 to 10^5 cells per spot, incubated overnight at 35° C., lowest concentration that inhibits visible growth
Procedure, shortened: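 MIC read after overnight 35 °C incubation as lowest drug level preventing visible growth. Inoculum of roughly 10^4–10^5 cells per spot (0.5 McFarland, 1:20 in TSB) applied to Mueller Hinton agar containing serial 2-fold compound dilutions.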

Row | SMILES | MIC [µg/mL] | SA 9218 MIC [µg/mL]
1 | O=C(Nc1cccc(C(=O)Nc2ccc(Br)cc2C(=O)O)c1)c1ccc(Cl)nc1 [PHA-713389] | > 128 | 
2 | O=C(Nc1ccc(C(=O)Nc2ccc(Br)cc2C(=O)O)cc1)c1ccc(Cl)nc1 [PHA-713390] | > 128 | 
3 | O=C(Nc1ccc(Br)cc1C(=O)O)c1cccc(NC(=O)c2sc3ccccc3c2Cl)c1 [PHA-713391] | > 128 | 
4 | O=C(Nc1ccc(Br)cc1C(=O)O)c1ccc(NC(=O)c2sc3ccccc3c2Cl)cc1 [PHA-713392] | > 128 | 
5 | O=C(Nc1ccccc1)Nc1ccc(C(=O)Nc2ccc(Br)cc2C(=O)O)cc1 [PHA-713393] | > 128 | 
6 | O=C(Nc1ccc(C(=O)Nc2ccc(Br)cc2C(=O)O)cc1)Nc1ccc(F)cc1F [PHA-713394] | 128 (≈ 261 µM) | 
7 | N#Cc1cccc(NC(=O)Nc2ccc(C(=O)Nc3ccc(Br)cc3C(=O)O)cc2)c1 [PHA-713395] | > 128 | 
8 | O=C(Nc1ccc(Br)cc1C(=O)O)c1cccc(NC(=S)Nc2cc(Cl)cc(Cl)c2)c1 [PHA-713396] | 8 (≈ 14.8 µM) | 
9 | O=C(Nc1ccc(C(=O)Nc2ccc(Br)cc2C(=O)O)cc1)Nc1cc(Cl)cc(Cl)c1 [PHA-713397] | > 128 | 
10 | COc1ccc(Cl)cc1NC(=O)Nc1cccc(C(=O)Nc2ccc(Br)cc2C(=O)O)c1 [PHA-713398] | 4 (≈ 7.71 µM) | 
11 | O=C(Nc1ccc(Oc2ccccc2)cc1)Nc1cccc(C(=O)Nc2ccc(Br)cc2C(=O)O)c1 [PHA-713399] | 16 (≈ 29.3 µM) | 
12 | O=C(Nc1ccc(Oc2ccccc2)cc1)Nc1ccc(C(=O)Nc2ccc(Br)cc2C(=O)O)cc1 [PHA-713400] | 16 (≈ 29.3 µM) | 
13 | CC(=O)c1ccc(NC(=O)Nc2cccc(C(=O)Nc3ccc(Br)cc3C(=O)O)c2)cc1 [PHA-713401] | 32 (≈ 64.5 µM) | 
14 | O=C(Nc1ccc(Br)cc1C(=O)O)c1ccc(NC(=S)Nc2ccc([N+](=O)[O-])cc2)cc1 [PHA-713403] | 64 (≈ 124 µM) | 
15 | O=C(Nc1ccc(Br)cc1C(=O)O)c1cccc(NC(=S)Nc2ccccc2C(F)(F)F)c1 [PHA-713405] | 128 (≈ 238 µM) | 
16 | COc1cc(NC(=S)Nc2cccc(C(=O)Nc3ccc(Br)cc3C(=O)O)c2)cc(OC)c1OC [PHA-713406] | 64 (≈ 114 µM) | 
17 | CSc1cccc(NC(=S)Nc2cccc(C(=O)Nc3ccc(Br)cc3C(=O)O)c2)c1 [PHA-713407] | 32 (≈ 62 µM) | 
18 | CC(=O)c1cccc(NC(=S)Nc2cccc(C(=O)Nc3ccc(Br)cc3C(=O)O)c2)c1 [PHA-713408] | 64 (≈ 125 µM) | 
19 | O=C(Nc1ccc(Br)cc1C(=O)O)c1cccc(NS(=O)(=O)c2ccccc2)c1 [PHA-713409] | 1 (≈ 2.1 µM) | 
20 | O=C(Nc1ccc(Br)cc1C(=O)O)c1cccc(NS(=O)(=O)c2ccc(Cl)c(Cl)c2)c1 [PHA-713410] | 1 (≈ 1.84 µM) | 

Row | SMILES | MIC [µg/mL] | SA 9218 MIC [µg/mL]
21 | Cc1ccc(S(=O)(=O)Cc2ccc(C(=O)Nc3ccc(Br)cc3C(=O)O)cc2)cc1 [PHA-713411] | 32 (≈ 65.5 µM) | 
22 | Cc1c(C(=O)Nc2ccc(Br)cc2C(=O)O)cccc1S(=O)(=O)N(C)c1ccc(Cl)cc1 [PHA-717196] | 4 (≈ 7.44 µM) | 
23 | CC(=O)c1ccc(NC(=O)c2cccc(S(=O)(=O)N3CCc4cc(Cl)ccc43)c2)c(C(=O)O)c1 [PHA-719201] | 2 (≈ 4.01 µM) | 
24 | Cc1c(C(=O)Nc2ccc(C#N)cc2C(=O)O)cccc1S(=O)(=O)N1CCc2cc(Cl)ccc21 [PHA-728844] | 0.25 (≈ 0.504 µM) | 
25 | COc1c(C(=O)Nc2ccc(Br)cc2C(=O)O)cccc1S(=O)(=O)N(C)c1ccc(Cl)cc1 [PHA-735753] | 16 (≈ 28.9 µM) | 
26 | CCCCCC(=O)NCc1ccc(C(=O)Nc2ccc(C#N)cc2C(=O)O)cc1S(=O)(=O)N1CCc2ccccc21 [PHA-738531] | 64 (≈ 111 µM) | 
27 | CCCCCCCCCCC(=O)NCc1ccc(C(=O)Nc2ccc(C#N)cc2C(=O)O)cc1S(=O)(=O)N1CCc2ccccc21 [PHA-738532] | 32 (≈ 49.6 µM) | 
28 | CC(=O)NCc1ccc(C(=O)Nc2ccc(C#N)cc2C(=O)O)cc1S(=O)(=O)N1CCc2ccccc21 [PHA-740499] | 128 (≈ 247 µM) | 
29 | N#Cc1ccc(NC(=O)c2ccc(N=[N+]=[N-])c(I)c2)c(C(=O)O)c1 [PHA-748361] | 8 (≈ 18.5 µM) | 
30 | CCCC(CCC)S(=O)(=O)c1ccc(C(=O)Nc2ccc(Cl)cc2C(=O)O)cc1NO.Cl [PNU-283601A] | 32 | 
31 | CCCN(CCC)S(=O)(=O)c1ccc(C(=O)Nc2ccc(Cl)cc2C(=O)O)cc1N.Cl [PNU-283603A] | 16 | 
32 | Nc1cc(C(=O)Nc2ccc(Cl)cc2C(=O)O)ccc1S(=O)(=O)N1CCc2ccccc21 [PNU-290881A] | 4 (≈ 8.48 µM) | 
33 | O=C(Nc1ccc(Cl)cc1C(=O)O)c1cccc(C(=O)c2ccccc2)c1 [drawing 1011] | 4 (≈ 10.5 µM) | 
34 | O=C(Nc1ccc(Cl)cc1C(=O)O)c1ccc(C(=O)C2CCCC2)cc1 [drawing 1027] |  | 8
35 | O=C(Nc1ccc(Br)cc1C(=O)O)c1cccc(C(=NO)c2ccccc2)c1 [drawing 1035] | 0.5 (≈ 1.14 µM) | 
36 | O=C(Nc1ccc(Br)cc1C(=O)O)c1cccc(OCc2ccccc2)c1 [drawing 1037] | 4 (≈ 9.38 µM) | 
37 | CCCC(Oc1ccc(C(=O)Nc2ccc(Br)cc2C(=O)O)cc1)C(=O)OCC (stereo not shown) [drawing 1052] |  | 64
38 | O=C(Nc1ccc(Cl)cc1C(=O)O)c1cccc(C(=NO)c2ccco2)c1 [drawing 1086] |  | 2
39 | CCCC(Oc1ccc(C(=O)Nc2ccc(Br)cc2C(=O)O)cc1)C(=O)OCC (stereo not shown) [drawing 1091] | 64 (≈ 138 µM) | 
40 | C=CCON=C(c1ccc(C(=O)Nc2ccc(Cl)cc2C(=O)O)cc1)c1ccco1 [drawing 1095] | 32 (≈ 75.3 µM) | 

Other lines, results leading:

Row | MIC [µg/mL] | SA 9218 MIC [µg/mL] | SMILES
41 | 4 (≈ 7.7 µM) |  | O=C(O)c1ccc(NS(=O)(=O)c2ccc(C(=O)Nc3ccc(Br)cc3C(=O)O)cc2)cc1 [PNU-276817]
42 | 16 (≈ 30.5 µM) |  | CN(c1ccc(Cl)cc1)S(=O)(=O)c1ccc(C(=O)Nc2ccc(Br)cc2C(=O)O)cc1 [PNU-276988]
43 | 1 (≈ 2.21 µM) |  | CCCN(CCC)Sc1ccc(C(=O)Nc2ccc(Cl)cc2C(=O)O)cc1[N+](=O)[O-] [PNU-277231]
44 | > 128 |  | O=C(Nc1ccc(I)cc1C(=O)O)c1ccc(F)cc1 [PNU-281164]
45 | 32 (≈ 68.6 µM) |  | O=C(Nc1ccc(Br)cc1C(=O)O)c1ccc(S(=O)(=O)Nc2nc[nH]n2)cc1 [PNU-282859]
46 | 1 (≈ 1.91 µM) |  | CN(c1ccc(Cl)cc1)S(=O)(=O)c1cccc(C(=O)Nc2ccc(Br)cc2C(=O)O)c1 [PNU-283076]
47 | 0.125 (≈ 0.25 µM) |  | O=C(Nc1ccc(Br)cc1C(=O)O)c1ccc(S(=O)(=O)n2ccc3ccccc32)cc1 [PNU-283318]
48 | 4 (≈ 7.99 µM) |  | O=C(Nc1ccc(Br)cc1C(=O)O)c1ccc(S(=O)(=O)n2cnc3ccccc32)cc1 [PNU-283371]
49 | 1 (≈ 1.99 µM) |  | O=C(Nc1ccc(Cl)cc1C(=O)O)c1ccc(S(=O)(=O)N2CCc3ccccc32)c([N+](=O)[O-])c1 [PNU-283599]
50 | 4 (≈ 9.03 µM) |  | O=C(Nc1ccc(Cl)cc1C(=O)O)c1ccc(SCc2ccccc2)c([N+](=O)[O-])c1 [PNU-283604]
51 | 0.25 (≈ 0.467 µM) |  | O=C(Nc1ccc(Br)cc1C(=O)O)c1cccc(S(=O)(=O)N2CCc3cc(Cl)ccc32)c1 [PNU-288969]
52 | 8 (≈ 14.4 µM) |  | COc1ccc(S(=O)(=O)N(C)c2ccc(Cl)cc2)cc1C(=O)Nc1ccc(Br)cc1C(=O)O [PNU-289815]
53 | 64 (≈ 119 µM) |  | Cc1ccc(S(=O)(=O)N(C)c2ccc(Cl)cc2)cc1C(=O)Nc1ccc(Br)cc1C(=O)O [PNU-290821]
54 | > 128 |  | O=C(Nc1ccc(Br)cc1C(=O)O)c1ccc(NC(=O)N2CCc3ccccc32)cc1 [PNU-290877, 5-Bromo-2-({4-[(2,3-dihydro-1H-indol-1-ylcarbonyl)amino]benzoyl}amino)benzoic acid]
55 | 1 (≈ 2.1 µM) |  | O=C(Nc1ccc(Cl)cc1C(=O)O)c1ccc(SCc2ccccc2)c(Br)c1 [PNU-290882]
56 | 1 (≈ 1.87 µM) |  | O=C(Nc1ccc(Br)cc1C(=O)O)c1ccc(S(=O)(=O)n2ccc3cc(Cl)ccc32)cc1 [PNU-290905]
57 | 1 (≈ 1.87 µM) |  | O=C(Nc1ccc(Br)cc1C(=O)O)c1ccc(S(=O)(=O)n2ccc3ccc(Cl)cc32)cc1 [PNU-290906]
58 | 1 (≈ 1.81 µM) |  | O=C(Nc1ccc(Br)cc1C(=O)O)c1ccc(S(=O)(=O)n2ccc3cc(F)c(Cl)cc32)cc1 [PNU-291010]

Row | MIC [µg/mL] | SA 9218 MIC [µg/mL] | SMILES
59 | 0.25 (≈ 0.483 µM) |  | O=C(Nc1ccc(Br)cc1C(=O)O)c1ccc(S(=O)(=O)n2ccc3ccc(F)cc32)cc1 [PNU-291011]
60 | 16 (≈ 26.5 µM) |  | CN(c1ccc(Cl)cc1)S(=O)(=O)c1ccc(Br)c(C(=O)Nc2ccc(Br)cc2C(=O)O)c1 [PNU-291061]
61 | 0.5 (≈ 0.966 µM) |  | O=C(Nc1ccc(Br)cc1C(=O)O)c1ccc(S(=O)(=O)n2ccc3cc(F)ccc32)cc1 [PNU-291129]
62 | 4 (≈ 8.9 µM) |  | O=C(Nc1ccc(Br)cc1C(=O)O)c1ccc(S(=O)(=O)n2cccc2)cc1 [PNU-291130]
63 |  | 32 | COc1ccc(C(=O)Nc2ccc(Cl)cc2C(=O)O)cc1[N+](=O)[O-] [PNU-291408]
64 | 4 (≈ 7.72 µM) |  | CCCN(CCC)S(=O)(=O)c1ccc(C(=O)Nc2ccc(Cl)cc2C(=O)O)cc1Br [PNU-291410]
65 | 2 (≈ 3.78 µM) |  | COc1ccc2c(ccn2S(=O)(=O)c2ccc(C(=O)Nc3ccc(Br)cc3C(=O)O)cc2)c1 [PNU-291517]
66 | 8 (≈ 14.4 µM) |  | COc1ccc(C(=O)Nc2ccc(Br)cc2C(=O)O)cc1S(=O)(=O)N(C)c1ccc(Cl)cc1 [PNU-291570]
67 | 0.5 (≈ 0.93 µM) |  | Cc1ccc(C(=O)Nc2ccc(Br)cc2C(=O)O)cc1S(=O)(=O)N(C)c1ccc(Cl)cc1 [PNU-291571]
68 | 1 (≈ 1.66 µM) |  | CN(c1ccc(Cl)cc1)S(=O)(=O)c1cc(C(=O)Nc2ccc(Br)cc2C(=O)O)ccc1Br [PNU-291679]
69 | 1 (≈ 2.04 µM) |  | O=C(Nc1ccc(Br)cc1C(=O)O)c1ccc(S(=O)(=O)Nc2ccccc2O)cc1 [PNU-291997]
70 |  | 2 | COc1ccc(C(=O)Nc2ccc(Cl)cc2C(=O)O)cc1[N+](=O)[O-] [PNU-292070]
71 | 0.5 (≈ 1.02 µM) |  | CN(c1ccc(Cl)cc1)S(=O)(=O)c1cccc(C(=O)Nc2ccc([N+](=O)[O-])cc2C(=O)O)c1 [PNU-292379]
72 | 128 (≈ 275 µM) |  | O=C(Nc1ccc(Br)cc1C(=O)O)c1ccc(C(=O)N2CCc3ccccc32)cc1 [PNU-292577]
73 | 16 (≈ 32.7 µM) |  | CN(c1ccc(Cl)cc1)S(=O)(=O)c1ccc(C(=O)Nc2ccc([N+](=O)[O-])cc2C(=O)O)cc1 [PNU-293032]
74 | 4 (≈ 9.04 µM) |  | O=C(Nc1ccc(Br)cc1C(=O)O)c1cccc(SCc2ccccc2)c1 [PNU-293049]
75 | 32 (≈ 52.6 µM) |  | CN(c1ccc(Cl)cc1)S(=O)(=O)c1cc(C(=O)Nc2ccc(Br)cc2C(=O)O)ccc1N1CCOCC1 [PNU-293795]
76 | 8 (≈ 15.2 µM) |  | N#Cc1ccc(C(=O)Nc2ccc(Br)cc2C(=O)O)cc1S(=O)(=O)N1CCc2ccccc21 [PNU-293905]
